According to patent US6001799A, “Method of treating hepatitis C in non-responders to interferon treatment” (SciClone Pharmaceuticals, Inc., priority 1993, dated 1999):
Where no end group is shown, it is not given here.

Tests used:
HCV-related diseases = conditions: in vivo; cited from earlier work
hepatitis B virus (HBV) = conditions: treated for a year, cited from earlier work
[1] = system: Woodchuck Hepatitis Virus; conditions: infected woodchuck; cited from earlier work
Hepatitis C = assay: Treatment of Hepatitis C patients with Thymosin α-1 during α-IFN administration (Example 6); assay type: in vivo, human; conditions: after 6 months
Description: The course of the disease and its response to drug treatments may be followed by clinical examination and laboratory findings.
Efficacy of Thymosin α-1 for treatment of Hepatitis C was shown in two Hepatitis C patients who were previous non-responders to α-interferon. These two patients were treated with Thymosin α-1 by subcutaneous injection of 1 mg thereof twice weekly, during administration three times weekly of 2 million units of α-IFN. […] In three additional Hepatitis C patients treated as above, serum ALT levels were reduced 50% after 6 months.

[2] = system: nonsmall cell lung cancer; conditions: both THNα1 treatment groups; cited from earlier work
[3] = system: response to influenza vaccine; conditions: cited from earlier work

Molecule	effectiveness in halting or slowing progression of HCV-related diseases (HCV-related diseases)	serum ALT (hepatitis B virus (HBV); THNα1 5 patients, TF-5 2 patients)	patients initially positive for HBSAg who cleared this antigen (hepatitis B virus (HBV); THNα1 and TF-5 patients pooled)	patients with reduced levels of serum HBV DNA (hepatitis B virus (HBV); THNα1 and TF-5 patients pooled)	clinical parameters [1]	viral DNA replication [1]	reduction of serum ALT (threshold not achieved) (Hepatitis C; six additional Hepatitis C patients, same regimen with α-IFN) [%]	response to treatment (serum ALT levels reduced to normal) (Hepatitis C; six other Hepatitis C patients, same regimen with α-IFN)	serum ALT levels reduced (Hepatitis C; three additional Hepatitis C patients, same regimen with α-IFN) [%]	reduction of serum alanine transaminase (ALT) (Hepatitis C; two patients, previous non-responders to α-interferon, 1 mg s.c. twice weekly during 2 million units α-IFN three times weekly) [%]	relapse-free survival and overall survival versus placebo group [2]	antibody to influenza ([3]; s.c. twice weekly from vaccination, six weeks post-vaccine)	toxicity in drug recipients ([3]; s.c. twice weekly)
Nc1nc2c(ncn2COCCO)c(=O)[nH]1 [acyclovir]	ineffective												
Thymosin α-1 (SDAAVDTSSEITTKDLKEKKEVVEEAEN; ends and bridges not checked; UniProt P06454 2-29, looked up)		marked decrease	5 of 6	6 of the 7	no improvement	suppressed viral DNA replication	< 50	complete response	50	50	greater	higher levels of antibody to influenza than controls	No clinical or biochemical toxicity
